From PMC10885115, “Susceptibility of Tetranychus urticae to the Alkaloidal Extract of Zanthoxylum schreberi Bark: Phenotypic and Biochemical Insights for Biotechnological Exploitation” (BioTech, 2024)
“And” between values parts separate entries of the source, which are not always exact repeats. Equal values may be shown once. Read-outs that look alike come from different tables or passages of the source.

Columns and labels:
[1] = molecular target: general esterases; assay: General esterase inhibition in T. urticae protein homogenate; format: biochemical, Tetranychus urticae; details: pure compounds, read-out: Est IC50 (95% interval confidence)
Method: (§1) The protein homogenate from T. urticae adult females (n = 50) was prepared by homogenizing them in 500 μL of 0.1 M phosphate buffer (pH 7.2) in an ice bath. After homogenization, the mixture was centrifuged at 12,000× g for 20 min at 4 °C. Both untreated mites and those treated with 0.5% Z. schreberi bark extract were processed similarly. The protein content within the homogenate was quantified using the linearized Bradford micromethod, employing bovine serum albumin as an external standard. A calibration curve was established based on the ratio of absorbance measurements at 590 nm and 450 nm, ensuring linearity with varying protein concentrations. The resulting supernatant was subsequently stored at −20 °C for further enzyme analysis.
Enzyme activity of general esterases was assessed using p-nitrophenylacetate as substrate, following a previous procedure. In brief, the protein homogenate (10 µL) was mixed in a microtiter plate well with 1 mM p-nitrophenyl acetate (200 µL) in 50 mM phosphate buffer pH 7.4. The absorbance was measured at 405 nm after a 10 min incubation period using a Varioskan LUX 96-well plate reader (Thermo Fisher Scientific, Waltham, MA, USA). The specific esterase activity was calculated using the kinetic slope to convert μmoles of product per minute (6.53 mM^−1cm^−1 and 0.3 cm), thereby determining the specific enzyme activity expressed as μmol of substrate/min/mg protein.
(§2) Further investigation involved determining the inhibition of the test enzymes (i.e., AChE, GST, esterase, and PMO). […] The final absorbance measurements of each treatment (At) and control (Ac) were related to the calculated enzyme inhibition percentage using Equation (3). (3) Enzyme Inhibition (%)=[…]
(§3) This determination was performed for each treatment concentration (extract and purified compound) to establish dose–response curves. The IC50 (half-maximal inhibitory concentration in μg/mL for extract and μM for pure compounds) was calculated via nonlinear regression analysis using GraphPad 7.0 (GraphPad Software LLC, Boston, MA, USA).

[2] = system: P450 monooxygenase (PMO); assay: PMO inhibition in T. urticae protein homogenate; format: biochemical, Tetranychus urticae; details: pure compounds, read-out: PMO IC50 (95% interval confidence)
Method: as §1
The PMO activity was measured by reducing hydrogen peroxide to oxidize 3,3′,5,5′-tetramethylbenzidine (TMBZ), following a previous procedure. Briefly, the protein homogenate (20 µL) was mixed in a microtiter plate well with 6 mM TMBZ (200 µL) working solution (TMBZ (0.01 g) in methanol (5 mL) and 0.25 M sodium acetate (pH 5.0, 15 mL)) and 3% H2O2 (25 µL) for 30 min at 25 °C. After this incubation period, the absorbance was read at 630 nm on a Varioskan LUX 96-well plate reader (Thermo Fisher Scientific, Waltham, MA, USA). The standard curve of heme peroxidase activity was prepared using Cytochrome C from equine heart (Merck, Milwakee, WI, USA). Total Cytochrome P450 monoxygenase was expressed as µmoles of Cytochrome P450 equivalent units (CPEU)/min/mg protein.
as §2, §3

[3] = molecular target: glutathione S-transferase (GST); assay: GST inhibition in T. urticae protein homogenate; format: biochemical, Tetranychus urticae; details: pure compounds, read-out: GST IC50 (95% interval confidence)
Method: as §1
GST activity was assessed using 1-chloro-2, 4-dinitrobenzene (CDNB) as the substrate, following a previous procedure. Briefly, the reaction was initiated by mixing CDNB (50 mM in ethanol, 50 µL) and reduced glutathione (50 mM in 0.1 M phosphate-buffered saline (PBS), pH 6.5, 150 µL) in a 5 mL vial with phosphate buffer (0.1 M, pH 6.5 containing 1 mM EDTA, 2.78 mL). Subsequently, 20 µL of protein homogenate was added, and the solution was thoroughly mixed. An aliquot (200 µL) from the resulting mixture was dispensed into a microtiter plate well for measurement, with the procedure performed in triplicate for both biological and technical replicates. The absorbance of each reaction mixture at 340 nm was then recorded using kinetics on a Varioskan LUX 96-well plate reader (Thermo Fisher Scientific, Waltham, MA, USA) after a 10 min duration. The specific GST activity was calculated using the kinetic slope to convert μmoles of product per minute (9.6 mM^−1cm^−1 and 0.3 cm), thereby determining the specific enzyme activity expressed as μmol of substrate/min/mg protein.
as §2, §3

[4] = system: T. urticae; details: cited from earlier work
[5] = system: T. cinnabarinus Boisdu-Val; parameters: method as in PMID 24861930; details: resistant strain; cited from earlier work
[6] = system: T. urticae adult females (exposed mite population); assay: Fecundity (oviposition) test for extract combined with commercial acaricides; format: in vivo, Tetranychus urticae; details: 0.06% chlorfenapyr, 0.075% cyflumetofen, 0.05% abamectin, 0.5% extract and combinations M2 to M4; surviving females after 72 h exposure
Method: (§4) Using the same methodology described in the previous section, the following treatments were evaluated in this test: absolute control (application of distilled water), relative control (10% ethanol), positive control A (clorfenapyr at 0.06%), positive control B (cyflumetofen at 0.075%), positive control C (abamectin at 0.05%), treatment 1 (0.5% extract), treatment 2 (0.5% extract + 0.06% clorfenapyr), treatment 3 (0.5% extract + 0.075% cyflumetofen), and treatment 4 (0.5% extract + 0.05% abamectin). Mortality assessments were conducted at 24, 48, and 72 h post-treatment application and adjusted using the Schneider–Orelli formula (Equation (1)). Fecundity was also measured by isolating five surviving females per treatment (after 72 h of exposure to treatments) in petri dishes. The number of eggs oviposited by each female was counted every 24 h over 5 days. Simultaneously with the susceptibility test, the repellent effect of the extract was measured by counting the number of surviving females placed outside the leaves after 24, 48, and 72 h. All laboratory tests were conducted under controlled conditions at 25 ± 2 °C, 60 ± 5% relative humidity, and a 12:12 (light/dark) photoperiod.

[7] = system: T. urticae adult females (exposed mite population); assay: Mortality test for extract combined with commercial acaricides (exposed mites); format: in vivo, Tetranychus urticae
Method: as §4

[8] = molecular target: T1, acetylcholinesterase (AChE) (Tetranychus urticae, UniProt D8V7J9); format: biochemical; details: pure compounds; T. urticae protein homogenate; read-out: AChE IC50 (95% interval confidence)
T1 sequence (D8V7J9 74-665): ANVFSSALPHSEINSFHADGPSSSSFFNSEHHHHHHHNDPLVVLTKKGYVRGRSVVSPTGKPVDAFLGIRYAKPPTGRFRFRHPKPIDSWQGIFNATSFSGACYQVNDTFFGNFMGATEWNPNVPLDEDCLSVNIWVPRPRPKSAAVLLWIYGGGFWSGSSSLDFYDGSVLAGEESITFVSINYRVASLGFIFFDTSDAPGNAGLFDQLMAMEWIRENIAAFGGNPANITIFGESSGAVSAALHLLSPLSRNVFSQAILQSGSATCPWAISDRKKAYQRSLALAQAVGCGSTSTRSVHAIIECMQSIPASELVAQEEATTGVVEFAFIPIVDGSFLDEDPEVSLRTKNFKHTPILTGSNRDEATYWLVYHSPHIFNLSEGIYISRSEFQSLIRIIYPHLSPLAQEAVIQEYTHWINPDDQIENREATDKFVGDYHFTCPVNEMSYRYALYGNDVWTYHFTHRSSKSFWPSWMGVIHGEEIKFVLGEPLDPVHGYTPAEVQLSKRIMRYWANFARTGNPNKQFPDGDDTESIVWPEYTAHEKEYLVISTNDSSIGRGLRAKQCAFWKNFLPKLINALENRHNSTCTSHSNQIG
Method: The protein homogenate from T. urticae adult females (n = 50) was prepared by homogenizing them in 500 μL of 0.1 M phosphate buffer (pH 7.2) in an ice bath. After homogenization, the mixture was centrifuged at 12,000× g for 20 min at 4 °C. […] The protein content within the homogenate was quantified using the linearized Bradford micromethod [40], employing bovine serum albumin as an external standard. A calibration curve was established based on the ratio of absorbance measurements at 590 nm and 450 nm, ensuring linearity with varying protein concentrations [40]. The resulting supernatant was subsequently stored at −20 °C for further enzyme analysis.
The Ellman method was employed to assess AChE activity in both untreated and Z. schreberi-treated mites, following a previous procedure [41]. […]
Further investigation involved determining the inhibition of the test enzymes (i.e., AChE, GST, esterase, and PMO). […] The final absorbance measurements of each treatment (At) and control (Ac) were related to the calculated enzyme inhibition percentage using Equation (3). […]

[9] = system: T. urticae females from the unexposed rearing system; assay: Preliminary mortality test with unexposed mites; format: in vivo, Tetranychus urticae; details: 0.4% chlorfenapyr (positive control), airbrush application
Method: A preliminary trial was conducted to determine the effect of Z. schreberi alkaloidal extract on mites for subsequent experiments, following the methodology outlined by Numa et al. (2015), with certain modifications. Briefly, the bioassay comprised a bean leaf with its underside facing upward, which was placed in a petri dish and its edges lined with cotton moistened using distilled water. Ten T. urticae females from the unexposed rearing system were situated on each leaf. The bioassay on females was driven by their pivotal role in population dynamics, as they are the primary contributors to new individuals. The net reproductive rate per generation (Ro) or population replacement rate is directly dependent on female reproductive capabilities. Consequently, any lethal or sublethal effects observed in females and oviposition will directly influence population growth. This approach led us to assess the potential of the extracts as a promising strategy for pest control, considering their impact on the crucial factor of population expansion. Subsequently, each dish was sealed with plastic wrap post-application of treatments. The evaluated treatments comprised an absolute control (mites without any application), a positive control (chlorfenapyr at 0.4%), and the alkaloidal extract of Z. schreberi at 2%. […] Deceased mites were counted 24 h post-application.

[10] = system: T. urticae adult females (exposed mite population); assay: Repellency test for Z. schreberi bark extract using exposed mites; format: in vivo, Tetranychus urticae; details: 0.06% chlorfenapyr
[11] = system: T. urticae adult females (exposed mite population); assay: Mortality test for Z. schreberi bark extract using exposed mites (leaf-immersion); format: in vivo, Tetranychus urticae; details: 0.06% chlorfenapyr (PC, commercially recommended dose)
Source text: The experimental setup involved a transparent cylindrical container with a 3.5 cm diameter filter paper disk placed at the bottom, moistened with distilled water. Bean leaf disks, previously immersed in the respective extract solution and air-dried, were then positioned on the paper disk. The container lid underwent modification, featuring a centrally located circular opening. A metal mesh, perforated with small holes, was affixed using silicone around this opening to facilitate ventilation and prevent mites from escaping. Concentrations ranging from 2, 1, 0.5, and 0.25, to 0.125% of the Z. schreberi bark alkaloidal extract were evaluated diluted in 10% ethanol. These concentrations were selected since they comprise typical doses for botanical pesticides, and, consequently, they were standardized in previous studies in our laboratory to assess botanical extracts. Additionally, three control treatments were employed: an absolute control (application of distilled water), a relative control (10% ethanol), and a positive control (clorfenapyr at 0.06%). Mortality assessments were conducted at 24, 48, and 72 h post-treatment application. The obtained mortality data were adjusted using Schneider–Orelli’s formula (Equation (1)). […]

[12] = molecular target: acetylcholinesterase (AChE) and butyrylcholinesterase (BuChE) from various sources; parameters: method as in PMID 37073143; details: most potent of 34 isoquinoline alkaloids; cited from earlier work

Row | Molecule | IC50 [1] | IC50 [2] | IC50 [3] | Average fecundity per female over 5 days compared to controls AC and RC [6] | other results
1 | COc1c(O)ccc2cnc3c4cc5c(cc4ccc3c12)OCO5 [Compound 9, zanthoxyline] | 289 µM | 8.37 µM | 21.5 µM | – | –
2 | COCCOC(=O)C(C#N)(C(=O)c1ccccc1C(F)(F)F)c1ccc(C(C)(C)C)cc1 (stereo not shown) [cyflumetofen] | – | – | – | statistically significant reduction | LD50 ([4]; susceptible strain of T. urticae): 0.00011%; LD50 [5]: 0.0016%; Corrected average mortality after 72 h ([7]; 0.075% cyflumetofen alone (PCB)): 32.5%
3 | COc1ccc2cc3[n+](cc2c1O)CCc1cc2c(cc1-3)OCO2 [Compound 3, berberrubine] | > 300 µM | 62.7 µM | 5.61 µM | – | –
4 | fagaridine [Compound 5] | > 300 µM | 20.9 µM | 112 µM | – | IC50 [8]: 14.6 µM
5 | COc1ccc2c(c[n+](C)c3c4cc5c(cc4ccc23)OCO5)c1OC [Compound 4, chelerythrine] | > 300 µM | 89.6 µM | 11.7 µM | – | –
6 | CCOCn1c(-c2ccc(Cl)cc2)c(C#N)c(Br)c1C(F)(F)F [chlorfenapyr] | – | – | – | statistically significant reduction | LD50 ([4]; two resistant strains of T. urticae, listed as clorfenapyr): 0.08% and 0.29%; Corrected mortality after 24 h [9]: 93.3%; Repellency after 72 h [10]: lowest repellency; Corrected average mortality after 72 h [11]: 24.6%; Corrected average mortality after 72 h ([7]; 0.06% chlorfenapyr alone (PCA)): 20.9%
7 | abamectin | – | – | – | statistically significant reduction | –
8 | COc1ccc2cc3[n+](cc2c1OC)CCc1cc2c(cc1-3)OCO2 [Compound 6, berberine] | > 300 µM | 386 µM | 1.24 µM | – | IC50 [12]: 0.72 µg/mL
